Test results as given in article PMC3160846 (PLoS ONE, 2011).

Assays:
[1] = test system: HONE-1 cells; assay: Clonogenic assay, HONE-1; format: cell-based, Human; settings: Homo sapiens, HONE1; HONE-1, oral, p53 mutant, MDR1 negative; read-out: IC50, anti-proliferative activity
Protocol: (§1) Human lung adenocarcinoma A549 cells and NTUB1 bladder cancer cells were maintained in RPMI supplied with 10% fetal bovine serum. […] KB-derived MRP1-expressing cell line, KB-7D, was maintained in growth medium supplemented with 7 µM VP-16.
(§2) Two hundred cells in logarithmic growth phase were seeded in a 6-well plate. The cells were exposed to various concentrations of the test drugs for a three-generation period. At the end of the incubation period, cells were fixed and stained with 50% ethanol containing 0.5% methylene blue for 30 min. The plates were washed five times with water and allowed to air-dry. Colonies were countered manually. […] Each value represents the average of at least three independent experiments run in triplicates.

[2] = test system: MV4-11 cells; assay: Clonogenic assay, MV4-11; format: cell-based, Human; settings: Homo sapiens; MV4-11, leukemia, p53 mutant, MDR1 negative; read-out: IC50, anti-proliferative activity
Protocol: as §1, §2

[3] = test system: NTU0.017 cells; assay: Clonogenic assay, NTU0.017; format: cell-based, Human; settings: for IC50: Homo sapiens, NTU0.017, paclitaxol resistant, MDR1 ↑, read-out: IC50, anti-proliferative activity
Protocol: as §1, §2

[4] = test system: KB cells; assay: Western blot of Histone H3 phosphorylation and cyclin B1, KB; format: cell-based, Human; settings: 48 h, BPR1K653 12, 24, 36 nM, VX680 170 and 255 nM
Protocol: Cells were lysed with ice-cold lysis buffer (10 mM Tris, 1 mM EDTA, 1 mM DTT, 60 mM KCl, 0.5% NP-40 and protease inhibitors). […] The resolved proteins were electrophoretically transferred to PVDF membranes (Amersham Life Science, Amersham, U.K.) for Western blot analysis. The membranes were blocked with 5% non-fat milk at room temperature for two hours, washed twice with TBST (1% Tween) and then incubated with either anti-phosphorylated Aurora-A/-B/-C kinase antibody (#2914S, Cell Signaling Technology, Danvers, MA), anti-Aurora-A and -B kinase antibody (#ab1287 and #ab2254, Abcam, Cambridge, MA), anti-phosphorylated Histone H3 antibody (#9701, Cell Signaling Technology, Danvers, MA), anti-Histone H3 antibody (#9715, Cell Signaling Technology, Danvers, MA), anti-Cyclin B1 antibody or anti-Actin antibody (#sc-245 and #sc-130065, Santa Cruz Biotechnology, Santa Cruz, CA) overnight at 4°C. Membranes were washed twice with TBST then subsequently incubated with a horseradish peroxidase-conjugated secondary antibody (Santa Cruz Biotechnology, Santa Cruz, CA) for 1 hour at room temperature. Immunoreactivity was detected by Enhanced Chemiluminescence (Amersham International, Buckingham, U.K.) and autoradiography. Experiments were repeated independently at least two times.

[5] = test system: KB cells; assay: Endo-replication (polyploidy), microscopy and flow cytometry, KB; format: cell-based, Human; settings: 48 h
Protocol: Cell cycle progression was monitored using flow cytometry. After drug treatment, cells were trypsinized, washed with PBS and fixed in 80% ethanol at −20°C for 1 h. The fixed cells were stained with propidium iodide (containing RNase) at room temperature in the dark for 20 min. The DNA content was determined by a fluorescence-activated cell sorting IV flow cytometer (BD Biosciences, Franklin Lakes, NJ). For each analysis, 10,000 cells were counted and the percentage of cells in each phase was calculated using the ModFit LT software (Verity Software House, Topsham, ME). Experiments were repeated independently at least three times.

[6] = test system: KB-VIN10 cells; assay: Clonogenic assay, KB-VIN10; format: cell-based, Human; settings: for IC50: Homo sapiens, KB-VIN10, vincristine resistant, MDR1 ↑, read-out: IC50, anti-proliferative activity
Protocol: as §1, §2

[7] = test system: MDR1-expressing KB-VIN10 xenograft; assay: KB-VIN10 xenograft in nude mice; format: in vivo; settings: 5 days/week for 3 weeks; for decrease in tumor volume: Day 42, BPR1K653 15 mg/kg or VX680 30 mg/kg i.p.
Protocol: Male nude mice (5–6-weeks-old) were purchased from the National Laboratory Animal Centre (Taiwan R.O.C.). The animals were s.c. implanted with 5×10^5 KB cells or 1×10^6 KB-VIN10 cells mixed with equal volume of Matrigel (Becton Dickinson) in 0.1 mL at one flank per mouse via a 22-gauge needle. Tumor growth was examined twice a week after implantation, and the volume of tumor mass was measured with an electronic caliper and calculated as 1/2×length×width^2 in mm^3.
BPR1K653 was dissolved completely in a vehicle mixture of DMSO/cremophor/saline (1∶2∶7). Selected dose of BPR1K653 was decided base on the following conditions: 1/2 of the dosage that caused noticeable body weight loss (>10%) in the treated mice during toxicity study. […] The control group (5 mice) was treated with vehicle mixture only. Tumor size and animal body weight were measured every three days after drug treatment. Toxicity was evaluated based on the body weight reduction. At the end of the experiments (tumor size of the control >2000 mm^3), animals were euthanized with carbon dioxide.

[8] = test system: KB cells; assay: Apoptosis assays (Annexin-V, caspase-3/-7 imaging, TUNEL), KB; format: cell-based, Human; settings: 48-72 h
Protocol: Cells were cultured in chamber-slides, incubated with test agents for 48 h, and washed twice with PBS. Cells were labeled with Annexin-V-FLUOS reagent (catalog number #11858777001, Roche, Indianapolis, IN) for 30 min at room temperature. The cells were analyzed by fluorescence microscopy.
Caspase-3/-7 activity was analyzed with the MagicRed™ DEVD real-time caspase activity detection kit (catalog number #935, Immunochemistry Technologies LLC, Bloomington, MN). Briefly, cells were cultured in chamber-slides and incubated with test agents for various durations. Cells were then incubated with the Caspase-3/-7 substrate MR-(DEVD2) in culture medium for 1 hour, and then co-incubated with Hoechst 33342 for 15 min. Cells were viewed with a UV-enabled inverted-microscope at an excitation wavelength of 540 nm–560 nm and emission at 610 nm. Experiments were repeated independently at least two times.
Under in vitro conditions, cells were seeded and cultured in 8-well chamber-slides, and treated with various compounds. […] Cells were counterstained with DAPI to detect the nucleus, and examined by fluorescence microscopy. Amount of red fluorescence labeled (DNA fragmented) cells were counted and percentage of apoptotic cells were calculated as follows: Amount of the red fluorescence labeled cells ÷ Total cells available×100. […]

[9] = test system: IM9 cells; assay: Clonogenic assay, IM9; format: cell-based, Human; settings: Homo sapiens; IM9, lymphoma, p53 wild-type, MDR1 negative; read-out: IC50, anti-proliferative activity
Protocol: as §1, §2

SMILES | IC50 [1] [nM] | IC50 [2] [nM] | IC50 [3] [nM] | Fold difference as compare to the IC50 in the respective parental cells ([3]; NTU0.017 vs NTUB1) [fold] | Histone H3 phosphorylation and cyclin B1 expression [4] | formation of polyploidy (populations >4N) [5] | IC50 [6] [nM] | Fold difference as compare to the IC50 in the respective parental cells ([6]; KB-VIN10 vs KB) [fold] | loss of body weight after treatment ([7]; 15 mg/kg i.p., vs control group) | decrease in tumor volume [7] | apoptosis: phosphatidylserine translocation, caspase-3/-7 activity, DNA fragmentation [8] | IC50 [9] [nM]
CN(C)Cc1ccccc1NC(=O)Nc1ccc(CCNc2ncnc3oc(-c4ccccc4)c(Cl)c23)cc1 [BPR1K653] | 11 | 5 | 10 ± 4 | 1 | inhibition of Histone H3 phosphorylation and down-regulation of cyclin B1 expression | induced the formation of polyploidy | 14 ± 4 | 1 | less than 10% | ~50% | induced the caspase-3/-7 activity and DNA fragmentation | 4 ± 2
Cc1cc(Nc2cc(N3CCN(C)CC3)nc(Sc3ccc(NC(=O)C4CC4)cc3)n2)[nH]n1 [VX680] | 20 ± 2 | 15 ± 4 | 6770 ± 1080 | – | inhibited the phosphorylation of Histone H3 and the expression of cyclin B1 | induced the formation of polyploidy in KB cells | 1400 ± 140 | – | – | did not exhibit significant tumor growth inhibitory effect | only induced the translocation of the phosphatidylserine molecule, caspase-3/-7 activity and DNA fragmentation in KB cells | 31 ± 16
